Results from article PMC13267291, “In vivo functional profiling and structural characterization of the human GLP1R A316T variant” (Science Advances, 2026).

How the values were obtained:
[1] = system: hGLP1R^A316T-SmBiT versus hGLP1R^WT-SmBiT; assay: β-arrestin 2 recruitment by NanoBiT complementation; format: cell-based, rat
Protocol: For mini-Gs recruitment, INS-1 832/3 Glp1r^−/− cells were seeded in 6-cm dishes and transiently cotransfected with 1.7 μg each of hGLP1R^WT or ^A316T-SmBiT and LgBiT-mini-Gs constructs for 24 hours. Cells were then detached, resuspended in Hanks’ balanced salt solution (HBSS) containing NanoGlo Live Cell Reagent (1:20; Promega) with furimazine, and seeded onto white 96-well half-area plates. Baseline luminescence was immediately recorded over 8 min at 37°C in a Flexstation 3 plate reader (Molecular Devices) and for a further 30 min after GLP-1RA addition at serial doses up to 100 nM. Readings were taken every 30 s and normalized to average well baseline, and average vehicle-induced signal was subtracted to establish the agonist-induced effect. To measure β-arrestin 2 recruitment, cells were processed as above with slight modifications: INS-1 832/3 Glp1r^−/− cells were cotransfected with 1.77 μg each of hGLP1R^WT or ^A316T-SmBiT and LgBiT–β-arrestin 2 plasmids for 24 hours, and GLP-1RAs were added at serial doses up to 1 μM. AUCs were calculated for each agonist concentration and fitted to log(agonist) versus response four-parameter curves using GraphPad Prism 10.1.2, with errors propagated for mini-Gs over β-arrestin 2 recruitment bias calculations.

[2] = system: SNAP/FLAG-hGLP1R^A316T versus ^WT; assay: GLP-1R ubiquitination assay; format: cell-based, rat; settings: 100 nM, 10 min; n = 5; Fig. 8K
Protocol: INS-1 832/3 Glp1r-/- SNAP/FLAG-hGLP1RWT or A316T cells plated onto 6- cm dishes were stimulated ± 100 nM exendin-4 for 10 min, washed with PBS and osmotically lysed in lysis buffer (50 mM tris-HCl, pH 7.4, 150 mM NaCl, 1% Triton X-100, 1 mM EDTA) with 1% protease inhibitor (Roche) and 1% phosphatase inhibitor cocktail (Sigma-Aldrich) at 4°C. Cell lysates were centrifuged at 12,000 g and 4°C for 10 min prior to the addition of 40 μL anti- FLAG M2 beads (A2220, Sigma-Aldrich) and overnight rotating incubation at 4°C to increase FLAG-tag binding efficiency. Samples were then centrifuged at 5,000 g for 30 s, bead pellets washed 3x in 500 μL wash buffer (50 mM Tris-HCl, 150 mM NaCl, pH 7.4), and proteins eluted with 2x urea buffer at 37°C for 10 min before Western blot analysis with anti-ubiquitin antibody (1:1,000; sc-8017, Santa Cruz Biotechnology) and sheep anti-mouse HRP secondary (1:5,000; ab6808, Abcam) followed by stripping and reblotting with anti-SNAP antibody as above to assess immunoprecipitated receptor per sample. GLP-1R ubiquitination was calculated from ubiquitin over SNAP band intensity levels under the different conditions tested using Fiji.
LC- MS/MS G LP-1R interactome analysis
INS-1 832/3 Glp1r-/- SNAP/FLAG-hGLP1RWT or A316T cells were plated onto 6-cm dishes and stimulated with vehicle or 100 nM GLP-1RA for 5 min as previously described (63). […]

Substance	Agonist-induced recruitment of β-arrestin 2, A316T versus WT, log(Emax/EC50) ([1]; serial doses up to 1 μM, n = 5, Fig. 7M)	β-arrestin 2 over Gαs signaling bias, A316T versus WT ([1]; Δlog(Emax/EC50) βarr2 − mini-Gs, Fig. 7N)	Effect of agonist stimulation on WT GLP-1R ubiquitination level [2]	Effect of agonist stimulation on ubiquitination of the A316T receptor [2]
exendin-F1	near-significant reduction	significant shift toward Gαs recruitment	–	–
exendin-4	–	–	did not affect	significantly increased
